Experimental data: patent US10085965B2, “Cannabinoid alcoholic drink” (priority 2016, dated 2018)

Assays:
[1] = Dissolution of CBD in ethanol and consumable alcohol (precipitation / clarity); format: physicochemical
Procedure: The Combining Cannabinoid Solution with Consumable Alcohol(s) step 156 involves adding the Solution from 154 to a plurality of consumable alcohols measured in 155 in order to create a CAD. In one example, 50 mg of isolated cannabinoid is measured 151. Approximately 5 mL of ethanol is measured 152. The cannabinoid is combined with the ethanol 153. A cannabinoid solution is created by ensuring the cannabinoid is fully dissolved in the ethanol 154. The resulting solution is then combined with one or more consumable alcohols 156. In this example, approximately 745 mL of vodka, to create a standard 750 mL bottle of cannabinoid infused vodka. In other embodiments, other volumes of CADs can be produced. In yet another embodiment, the volume fraction of cannabinoid/ethanol solution in total volume of CADs is equal to or less than 1%.
One particular cannabinoid that can be used is CBD. […] Thus, the CBD and ethanol combine to remain as a fully dissolved, clear solution. […]
The Combining CBD/Ethanol Solution with consumable Alcohol(s) step 256 involves adding the Solution from 254 to the plurality of consumable alcohols measured in 255 in order to create a CAD. In one example, 50 mg of isolated CBD is measured 251. Approximately 5 mL of ethanol is measured 252. […]

[2] = system: binge alcohol-induced neurodegeneration; conditions: transdermal delivery, rodent model; Liputa et al. 2013; cited from earlier work
[3] = Effects reported by people when the CBD alcoholic drink is consumed; format: in vivo; conditions: CBD consumed together with alcohol in the drink; reports of consumers
Source text: When consumed, the positive effects of the CBD help to offset the deleterious effects of the alcohol.

## C=C(C)[C@@H]1CCC(C)=C[C@H]1c1c(O)cc(CCCCC)cc1O [CBD, cannabidiol]
[1]; 7.8 mg CBD in 1 mL ethanol
  dissolution of CBD in ethanol: no problem with dissolution
[1]; amounts/ratios described: 50 mg in approx. 5 mL ethanol, combined with approx. 745 mL vodka, room temperature
  precipitation of CBD from the solution: will not precipitate out
[2]
  effect on binge alcohol-induced neurodegeneration: attenuate binge alcohol-induced neurodegeneration
[3]
  effects reported when consumed: euphoria, a sense of being upbeat and feeling little to no effect of the alcohol
